# Laboratory results as given in patent US20230123334A1, “AMINO LIPID COMPOUND, PREPARATION METHOD THEREFOR, AND APPLICATION THEREOF” (SHENZHEN SHENXIN BIOTECHNOLOGY CO., LTD., priority 2020, published 2023).
# Assays:
# HEK293 cells [1] = experiment: Preliminary screening as DNA vectors, GFP transfection of HEK293 cells; type: cell-based; conditions: HEK293 cells; lipid/DOPE liposome with 75 ng plasmid DNA (psin-EGFP-IRES-Puro); number of cells expressing GFP divided by total number of nuclei (Hoechst)
# How it was run: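 First, amino lipid and DOPE were vortexed in sodium acetate buffer (pH 5.6) to form liposomes. Next, these were held with 75 ng EGFP plasmid at room temperature for 30 min. Finally, HEK293 cells were added, cultured at 37° C., Hoechst-stained, and GFP+/total nuclei scored by imaging.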
# HEK293 cells [2] = experiment: Preliminary screening as mRNA vectors, EGFP mRNA transfection of HEK293 cells; type: cell-based; conditions: HEK293 cells, 96-well plates, EGFP mRNA 50 ng per well; percentage of GFP fluorescent cells relative to total number of cells (Hoechst)
# How it was run: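 Screening format: EGFP mRNA transfection (50 ng/well) into HEK293 in 10% FBS-supplemented DMEM. Percent green fluorescent cells, normalised to Hoechst nuclear count, gave the value; Lipofectamine2000 was the reference transfectant.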
Compound,Absolute DNA transfection efficiency in HEK293 cells (HEK293 cells [1]) [%],Absolute mRNA transfection efficiency in HEK293 cells (HEK293 cells [2]) [%]
CCCCCCCCCCCCCCCCCCNc1nc(NCCCCCCCCCCCCC)nc(NCCN2CCN(C)CC2)n1 [Compound N13N18D5],0.2,0.7
CCCCCCCCCCCCCCCCCCNc1nc(NCCCCCCCCCCCCC)nc(NCCCN(C)C)n1 [Compound N13N18D6],3.0,14.7
CCCCCCCCCCCCCCCCCCNc1nc(NCCCCCCCCCCCCC)nc(NCCN(CC)CC)n1 [Compound N13N18D7],3.7,1.3
CCCCCCCCCCCCCCCCCCNc1nc(NCCCCCCCCCCCCC)nc(NCCCN2CCOCC2)n1 [Compound N13N18D8],0.0,0.0
CCCCCCCCCCCCCCCCCCNc1nc(NCCCCCCCCCCCCC)nc(NCCCN2CCN(C)CC2)n1 [Compound N13N18D9],1.1,0.8
CCCCCCCCCCCCCCCCCCNc1nc(NCCCCCCCCCCCCC)nc(NCC2CCN(C)CC2)n1 [Compound N13N18D10],0.5,6.1
CCCCCCCCCCCCCCCNc1nc(NCCCCCCCCCCCCCCC)nc(NCCN(C)C)n1 [Compound N15N15D1],2.3,0.0
CCCCCCCCCCCCCCCNc1nc(NCCCCCCCCCCCCCCC)nc(NCCN2CCOCC2)n1 [Compound N15N15D2],0.0,0.0
CCCCCCCCCCCCCCCNc1nc(NCCCCCCCCCCCCCCC)nc(NCCN2CCCC2)n1 [Compound N15N15D3],1.8,3.8
CCCCCCCCCCCCCCCNc1nc(NCCCCCCCCCCCCCCC)nc(NCCN2CCCCC2)n1 [Compound N15N15D4],1.3,0.8
CCCCCCCCCCCCCCCNc1nc(NCCCCCCCCCCCCCCC)nc(NCCN2CCN(C)CC2)n1 [Compound N15N15D5],0.9,0.0
CCCCCCCCCCCCCCCNc1nc(NCCCCCCCCCCCCCCC)nc(NCCCN(C)C)n1 [Compound N15N15D6],1.5,0.0
CCCCCCCCCCCCCCCNc1nc(NCCCCCCCCCCCCCCC)nc(NCCN(CC)CC)n1 [Compound N15N15D7],0.5,0.0
CCCCCCCCCCCCCCCNc1nc(NCCCCCCCCCCCCCCC)nc(NCCCN2CCOCC2)n1 [Compound N15N15D8],0.0,0.0
CCCCCCCCCCCCCCCNc1nc(NCCCCCCCCCCCCCCC)nc(NCCCN2CCN(C)CC2)n1 [Compound N15N15D9],0.4,0.0
CCCCCCCCCCCCCCCNc1nc(NCCCCCCCCCCCCCCC)nc(NCC2CCN(C)CC2)n1 [Compound N15N15D10],1.1,4.2
CCCCCCCCCCCCCCCCNc1nc(NCCCCCCCCCCCCCCC)nc(NCCN(C)C)n1 [Compound N15N16D1],1.8,3.6
CCCCCCCCCCCCCCCCNc1nc(NCCCCCCCCCCCCCCC)nc(NCCN2CCOCC2)n1 [Compound N15N16D2],0.0,0.0
CCCCCCCCCCCCCCCCNc1nc(NCCCCCCCCCCCCCCC)nc(NCCN2CCCC2)n1 [Compound N15N16D3],2.5,6.1
CCCCCCCCCCCCCCCCNc1nc(NCCCCCCCCCCCCCCC)nc(NCCN2CCCCC2)n1 [Compound N15N16D4],1.9,1.6

Compound,Absolute DNA transfection efficiency in HEK293 cells (HEK293 cells [1]) [%],Absolute mRNA transfection efficiency in HEK293 cells (HEK293 cells [2]) [%]
CCCCCCCCCCCCCCCCNc1nc(NCCCCCCCCCCCCCCC)nc(NCCN2CCN(C)CC2)n1 [Compound N15N16D5],0.7,0.0
CCCCCCCCCCCCCCCCNc1nc(NCCCCCCCCCCCCCCC)nc(NCCCN(C)C)n1 [Compound N15N16D6],0.8,1.3
CCCCCCCCCCCCCCCCNc1nc(NCCCCCCCCCCCCCCC)nc(NCCN(CC)CC)n1 [Compound N15N16D7],0.9,0.0
CCCCCCCCCCCCCCCCNc1nc(NCCCCCCCCCCCCCCC)nc(NCCCN2CCOCC2)n1 [Compound N15N16D8],0.0,0.0
CCCCCCCCCCCCCCCCNc1nc(NCCCCCCCCCCCCCCC)nc(NCCCN2CCN(C)CC2)n1 [Compound N15N16D9],2.1,1.7
CCCCCCCCCCCCCCCCNc1nc(NCCCCCCCCCCCCCCC)nc(NCC2CCN(C)CC2)n1 [Compound N15N16D10],1.5,0.0
CCCCCCCCCCCCCCCCCCNc1nc(NCCCCCCCCCCCCCCC)nc(NCCN(C)C)n1 [Compound N15N18D1],0.0,0.0
CCCCCCCCCCCCCCCCCCNc1nc(NCCCCCCCCCCCCCCC)nc(NCCN2CCOCC2)n1 [Compound N15N18D2],0.0,0.0
CCCCCCCCCCCCCCCCCCNc1nc(NCCCCCCCCCCCCCCC)nc(NCCN2CCCC2)n1 [Compound N15N18D3],3.0,8.6
CCCCCCCCCCCCCCCCCCNc1nc(NCCCCCCCCCCCCCCC)nc(NCCN2CCCCC2)n1 [Compound N15N18D4],1.6,1.9
CCCCCCCCCCCCCCCCCCNc1nc(NCCCCCCCCCCCCCCC)nc(NCCN2CCN(C)CC2)n1 [Compound N15N18D5],0.0,0.0
CCCCCCCCCCCCCCCCCCNc1nc(NCCCCCCCCCCCCCCC)nc(NCCCN(C)C)n1 [Compound N15N18D6],0.6,8.6
CCCCCCCCCCCCCCCCCCNc1nc(NCCCCCCCCCCCCCCC)nc(NCCN(CC)CC)n1 [Compound N15N18D7],3.2,8.3
CCCCCCCCCCCCCCCCCCNc1nc(NCCCCCCCCCCCCCCC)nc(NCCCN2CCOCC2)n1 [Compound N15N18D8],0.9,0.0
CCCCCCCCCCCCCCCCCCNc1nc(NCCCCCCCCCCCCCCC)nc(NCCCN2CCN(C)CC2)n1 [Compound N15N18D9],0.7,0.0
CCCCCCCCCCCCCCCCCCNc1nc(NCCCCCCCCCCCCCCC)nc(NCC2CCN(C)CC2)n1 [Compound N15N18D10],3.5,7.4
CCCCCCCCCCCCCCCCNc1nc(NCCCCCCCCCCCCCCCC)nc(NCCN(C)C)n1 [Compound N16N16D1],1.3,9.5
CCCCCCCCCCCCCCCCNc1nc(NCCCCCCCCCCCCCCCC)nc(NCCN2CCOCC2)n1 [Compound N16N16D2],0.2,0.0
CCCCCCCCCCCCCCCCNc1nc(NCCCCCCCCCCCCCCCC)nc(NCCN2CCCC2)n1 [Compound N16N16D3],1.4,2.8
CCCCCCCCCCCCCCCCNc1nc(NCCCCCCCCCCCCCCCC)nc(NCCN2CCCCC2)n1 [Compound N16N16D4],0.9,0.0
